Test results taken from patent US7183320B2, “Benzoylsulfonamides and sulfonylbenzamidines for use as antitumour agents” (Eli Lilly and Company, priority 2002, dated 2007).

Key:
Format in all cases: in vivo
Details in all cases: Balb/C SCID female mice
[1] = system: HUMAN COLON ADENOCARCINOMA-HCT116; assay: Early stage human colon adenocarcinoma HCT116 xenograft (Table IV)
Excerpt: (§1) Conventional Murine Tumor and Human Tumor Xenouraft Assays
(§2) Inhibition of tumors transplanted into mice is an accepted procedure for studying the efficacy of antitumor agents (Corbett, et al., In vivo Methods for Screening and Preclinical Testing; Use of rodent solid tumors for drug discovery., In: Anticancer Drug Development Guide: Preclinical Screening, Clinical Trials, and Approval, B. Teicher (ed), Humana Press Inc., Totowa, N.J., Chapter 5, pages 75–99 (1997); (Corbett, et al., Int., J. Parmacog., 33, Supplement, 102–122 (1995)). Murine tumors or human xenographs were implanted essentially as described by Corbett in In vivo Methods for Screening and Preclimical Testing; Use of rodent solid tumors for drug discovery. Briefly, the murine tumor or human xenograph was implanted subcutaneously using either 12-gauge trocar implants or counted number of cells. The location for the trocar insertion is midway between the axillary and inguinal region along the side of the mouse. The trocar is slipped approximately ¾ of an inch subcutaneously up toward the axilla before discharging the tumor fragment, and pinching the skin as the trocar is removed., Alternatively, human tumor cells prepared from a […] of donor tumors (5×10^6 cells) were implanted subcutaneously in a hind-leg of a male or female nude mouse (Charles River). Either a test compound in vehicle or vehicle alone was administered by intravenous bolus injection (iv), intraperitoneal injection (ip), or oral gavage (po). Each treatment group, as well as a group of untreated control animals, consisted of five animals per group in each experiment. Subcutaneous tumor response was monitored by tumor volume measurement performed twice each week over the course of the experiment (60–120 days). Body weights were taken as a general measure of toxicity. The subcutaneous tumor data were analyzed by determining the median tumor weight for each treatment group over the course of the experiment and calculating the tumor growth delay as the difference in days for the treatment versus the control tumors to reach a volume of either 500 or 1000 mm^3.
(§3) The compound of Example 110 was tested against a variety of murine and human tumors substantially as described supra. The parameters measured in each experiment are summarized in the following paragraphs. • Tumor Weight(mg)=(a×b^2)/2 where a=tumor length (mm) and b=tumor width (mm). • Tumor Growth Delay=T−C where T is the median time (days) required for the treatment group tumors to reach a predetermined size, and C is the median time (days) for the control group tumors to reach the same size. Tumor-free survivors are excluded from this calculation, and are tabulated separately (Tumor Free).
(§4) [formula] • where Tumor Growth Delay is as previously defined and Td is tumor volume doubling time (days), estimated from the best fit straight line from a log-linear growth plot of the control group of tumors in exponential growth (100–800 mg range) • % T/C mass—The treatment and control groups are measured when the control group tumors reach approximately 700 to 1200 mg in size (median group). The median tumor weight of each group is determined (including zeros). The T/C value in percent is an indication of antitumor effectiveness. A T/C≦42% is considered significant antitumor activity. A T/C<10% is considered to indicate highly significant antitumor activity. • Body Weight Loss Nadir—A body weight loss nadir (mean of group) of greater than 20% or drug deaths greater than 20% are considered to indicate an excessively toxic dosage in single course trials. • Activity Rating—the Activity Rating is derived from the Log Kill according to the following table: […]

HUMAN BREAST WSU-Br-1 = assay: Upstaged human breast WSU-Br-1 xenograft (Table VIII)
Excerpt: as §1, §2, §3, §4

HUMAN OVARIAN BG-1 = assay: Early stage human ovarian BG-1 xenograft (Table IX)
Excerpt: as §1, §2, §3, §4

[2] = total dose 280 mg/kg: 70 mg/kg/injection IV on days 3, 4, 5, and 9
[3] = total dose 560 mg/kg: 140 mg/kg/injection IV on days 3, 4, 5, and 9
[4] = total dose 500 mg/kg: 100 mg/kg/injection IV on days 11–13 and 19–20
[5] = total dose 725 mg/kg: 145 mg/kg/injection IV on days 11–13 and 19–20
[6] = total dose 600 mg/kg: 100 mg/kg/injection IV on days 3–5 and 9–11
[7] = total dose 870 mg/kg: 145 mg/kg/injection IV on days 3–5 and 9–11

Structure (SMILES): O=C(NS(=O)(=O)c1ccccc1)c1ccc(Cl)cc1Cl [Example 110, N-[2,4-dichlorobenzoyl]phenylsulfonamide]
- % BODY WT LOSS AT NADIR [1, 2]: 0%
- % T/C MASS [1, 2]: 0%
- ACTIVITY RATING [1, 2]: ++++ (HIGHLY ACTIVE >2.8)
- DRUG DEATHS [1, 2]: 0/5
- GROWTH DELAY [1, 2]: 28 days
- LOG KILL [1, 2]: 3.4
- TUMOR FREE AT DAY 115 [1, 2]: 2/5
- % BODY WT LOSS AT NADIR [1, 3]: −4.0%
- % T/C MASS [1, 3]: 0%
- ACTIVITY RATING [1, 3]: ++++ (HIGHLY ACTIVE >2.8)
- DRUG DEATHS [1, 3]: 0/5
- GROWTH DELAY [1, 3]: 56 days
- LOG KILL [1, 3]: 6.7
- TUMOR FREE AT DAY 115 [1, 3]: 2/5
- % BODY WT LOSS AT NADIR (HUMAN BREAST WSU-Br-1; [4]): +14%
- % T/C MASS (HUMAN BREAST WSU-Br-1; [4]): 0%
- ACTIVITY RATING (HUMAN BREAST WSU-Br-1; [4]): ++++ (HIGHLY ACTIVE >2.8)
- DRUG DEATHS (HUMAN BREAST WSU-Br-1; [4]): 0/5
- GROWTH DELAY (HUMAN BREAST WSU-Br-1; [4]): 39 days
- LOG KILL (HUMAN BREAST WSU-Br-1; [4]): 2.0
- TUMOR FREE AT DAY 179 (HUMAN BREAST WSU-Br-1; [4]): 2/5
- % BODY WT LOSS AT NADIR (HUMAN BREAST WSU-Br-1; [5]): +3.9%
- % T/C MASS (HUMAN BREAST WSU-Br-1; [5]): 0%
- ACTIVITY RATING (HUMAN BREAST WSU-Br-1; [5]): ++++ (HIGHLY ACTIVE >2.8)
- DRUG DEATHS (HUMAN BREAST WSU-Br-1; [5]): 0/5
- GROWTH DELAY (HUMAN BREAST WSU-Br-1; [5]): 57 days
- LOG KILL (HUMAN BREAST WSU-Br-1; [5]): 2.9
- TUMOR FREE AT DAY 179 (HUMAN BREAST WSU-Br-1; [5]): 2/5
- % BODY WT LOSS AT NADIR (HUMAN OVARIAN BG-1; [6]): −3.0%
- % T/C MASS (HUMAN OVARIAN BG-1; [6]): 0%
- ACTIVITY RATING (HUMAN OVARIAN BG-1; [6]): ++++ (HIGHLY ACTIVE >2.8)
- DRUG DEATHS (HUMAN OVARIAN BG-1; [6]): 0/5
- GROWTH DELAY (HUMAN OVARIAN BG-1; [6]): 30 days
- LOG KILL (HUMAN OVARIAN BG-1; [6]): 3.6
- TUMOR FREE AT DAY 176 (HUMAN OVARIAN BG-1; [6]): 0/5
- % BODY WT LOSS AT NADIR (HUMAN OVARIAN BG-1; [7]): −2.0%
- % T/C MASS (HUMAN OVARIAN BG-1; [7]): 0%
- ACTIVITY RATING (HUMAN OVARIAN BG-1; [7]): ++++ (HIGHLY ACTIVE >2.8)
- DRUG DEATHS (HUMAN OVARIAN BG-1; [7]): 0/5
- GROWTH DELAY (HUMAN OVARIAN BG-1; [7]): 30.5 days
- LOG KILL (HUMAN OVARIAN BG-1; [7]): 3.7
- TUMOR FREE AT DAY 176 (HUMAN OVARIAN BG-1; [7]): 1/5
